Data published in PubChem BioAssay AID328 (DTP/NCI, 2004).
Inconclusive results and toxic doses are left out. Rule for the calls: active = survival T/C of 150% or more; inactive = T/C below 125% in these data.

Tested on: BDF1 mice, P388 leukemia ip, median survival T/C
Assay: NCI In Vivo Anticancer Drug Screen. Data for tumor model P388 Leukemia (intraperitoneal) in B6D2F1 (BDF1) mice
Settings: endpoint: median survival time, higher = longer survival
Method in brief: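 T/C = treated-group survival ÷ vehicle-control survival; tumour transplanted into mice before dosing.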

[1] = dose: 100.0 mg/kg/injection, schedule: Q01DX009 (ip), vehicle: water
[2] = dose: 200.0 mg/kg/injection, schedule: Q01DX009 (ip), vehicle: water
[3] = dose: 400.0 mg/kg/injection, schedule: Q01DX009 (ip), vehicle: water
[4] = dose: 25.0 mg/kg/injection, schedule: Q01DX009 (ip), vehicle: water
[5] = dose: 50.0 mg/kg/injection, schedule: Q01DX009 (ip), vehicle: water

Measured: T/C

CCSc1ncc(C)c(Cl)n1
inactive: [1] 107 % of control | dose: 100.0 mg/kg/injection, schedule: Q04DX003 (ip), vehicle: water 105 % of control | [2] 99 % of control | dose: 200.0 mg/kg/injection, schedule: Q04DX003 (ip), vehicle: water 107 % of control | [3] 108 % of control | dose: 400.0 mg/kg/injection, schedule: Q04DX003 (ip), vehicle: water 103 % of control

C1CC[N-]CC1.C1CC[N-]CC1.[Co].[N-]=C=S.[N-]=C=S
inactive: dose: 100.0 mg/kg/injection, schedule: Q01DX001 (ip), vehicle: saline with Tween-80 99 % of control

O=C1NC(Cc2ccccc2)C(=O)NC1Cc1ccccc1 (configuration not stated)
inactive: dose: 6.25 mg/kg/injection, schedule: Q01DX009 (ip), vehicle: saline with Tween-80 106 % of control | dose: 12.5 mg/kg/injection, schedule: Q01DX009 (ip), vehicle: saline with Tween-80 101 % of control | dose: 25.0 mg/kg/injection, schedule: Q01DX009 (ip), vehicle: saline with Tween-80 108 % of control

c1ccc2c3c(ccc2c1)OCCOCCOc1ccc2ccccc2c1-3
inactive: dose: 50.0 mg/kg/injection, schedule: Q01DX009 (ip), vehicle: saline with Tween-80 86 % of control | dose: 100.0 mg/kg/injection, schedule: Q01DX009 (ip), vehicle: saline with Tween-80 88 % of control | dose: 200.0 mg/kg/injection, schedule: Q01DX009 (ip), vehicle: saline with Tween-80 92 % of control

CC(/C=C/C=C/c1ccccc1)=N\O
inactive: dose: 200.0 mg/kg/injection, schedule: Q01DX009 (ip), vehicle: Klucel (hydroxypropylcellulose) (HPC) 90 % of control | dose: 400.0 mg/kg/injection, schedule: Q01DX009 (ip), vehicle: Klucel (hydroxypropylcellulose) (HPC) 95 % of control

CC1(C)CCC(=O)O1
inactive: [4] 104 % of control | [5] 104 % of control | [1] 91 % of control | [2] 103 % of control | [3] 91 % of control

NC(Cc1c[nH]c2ccccc12)C(=O)OCc1ccccc1 (configuration not stated)
inactive: dose: 3.12 mg/kg/injection, schedule: Q01DX009 (ip), vehicle: water 106 % of control | dose: 3.12 mg/kg/injection, schedule: Q04DX003 (ip), vehicle: water 100 % of control | dose: 6.25 mg/kg/injection, schedule: Q01DX009 (ip), vehicle: water 101 % of control | dose: 6.25 mg/kg/injection, schedule: Q04DX003 (ip), vehicle: water 88 % of control | dose: 12.5 mg/kg/injection, schedule: Q01DX009 (ip), vehicle: water 93 % of control | dose: 12.5 mg/kg/injection, schedule: Q04DX003 (ip), vehicle: water 123 % of control | [4] 97 % of control | dose: 25.0 mg/kg/injection, schedule: Q04DX003 (ip), vehicle: water 108 % of control | [5] 92 % of control | dose: 50.0 mg/kg/injection, schedule: Q04DX003 (ip), vehicle: water 97 % of control | [1] 101 % of control | [2] 110 % of control
